Earlier results as cited in patent US20040202718A1, “Dosage form for treatment of diabetes mellitus” (priority 2001, published 2004).
Where a name gives a salt, the structure may show the parent alone.

Details: clinical study disclosed in U.S. Pat. No. 5,922,769

Structure (SMILES): CN(C)C(=N)N=C(N)N [Metformin hydrochloride]
- maximum dose which does not cause any side-effects: 1500 mg/day
